From patent US20220186186A1, “COMPOSITION FOR INDUCING DIRECT CONVERSION OF SOMATIC CELL INTO COMMON MYELOID PROGENITOR AND USE THEREOF” (KOREA INSTITUTE OF SCIENCE AND TECHNOLOGY, priority 2020, published 2022)

Test system: neonatal fibroblasts (HDF-N)
Assay: Direct conversion of neonatal fibroblasts to CMP cells, marker expression by flow cytometry (FACS)
Format: cell-based, human
Protocol: Human dermal fibroblasts derived from human skin were purchased from ThermoFisher (USA). Human neonatal dermal fibroblasts (HDF-N; neonatal-C0045C) and human adult dermal fibroblasts (HDF-A; adult-C0135C) were purchased, respectively.
To confirm direct conversion potential of fibroblasts to CMP cells, flow cytometry (FACS) analyses were performed. Using the antibodies listed below, expression levels of proteins including the hematopoietic stem cell (HSC) membrane marker CD34, the blood cell membrane marker CD45, and the common myeloid progenitor (CMP) membrane marker CD14, were confirmed. The antibodies used are as follows: • FITC conjugated mouse anti-human CD34 monoclonal antibodies, eBioscience • APC conjugated mouse anti-human CD45 monoclonal antibodies, eBioscience • APC-eFluoro780 conjugated mouse anti-human CD14 monoclonal antibodies, eBioscience
Cells were dissociated into single cells with accutase and then washed with 1% FBS/PBS solution. After treatment with Fc blocker (BD Bioscience) for 10 minutes to prevent non-specific antigen binding, the cells were blocked for 15 minutes using 1% FBS/PBS solution. […] Subsequent to the reaction, the cells were washed twice with cold PBS solution and analyzed by flow cytometry using CytoFLEX by Beckman, and data were analyzed using the CytExpert program. […]

Cc1cccc(-c2n[nH]cc2-c2ccc3ncccc3n2)n1 [Example 3-1, 2-[3-(6-methylpyridin-2-yl)-1H-pyrazol-4-yl]-1,5-naphthyridine]
expression of the blood cell marker CD45 (28 days, inhibitor alone, Table 3 and FIG. 18): increase
CD45-expressing cell (%) compared to negative control group (Cnt) (cultured 28 days in reprogramming media with the chemical composition, Table 3): 6.36%
